Patent US7129073B2, “Regulation of neuronal function through metabotropic glutamate receptor signaling pathways” (The Rockefeller University, priority 2001, dated 2006)

Experiments:
[1] = tested on: Thr75 of DARPP-32 (Cdk5 site); experiment: DARPP-32 phospho-Thr75 immunoblot in neostriatal slices; assay type: cell-based, mouse
Procedure: Neostriatal slices were prepared from male C57/BL6 mice (6–8 weeks old) in accordance with methods known in the art (Nishi, A. et al. 1997, J. Neurosci. 17:8147–8155). Slices were treated with a drug. After drug treatment, slices were immediately frozen in liquid nitrogen, and stored at −80° C. until assayed.
Frozen slices were sonicated in hot homogenization buffer containing 1% SDS and 50 mM NaF, and samples were boiled for 10 minutes. SDS-PAGE sample buffer was then added and samples were boiled for 5 minutes. Samples (approximately 120 μg of total protein) were separated by SDS-PAGE (10% polyacrylamide) and then transferred to nitrocellulose. In most studies, immunoblots were first probed with anti-phospho-Ser137 DARPP-32 antibody. The blots were then stripped and probed with anti-phospho-Thr75 DARPP-32 antibody. Blots were stripped again and probed with anti-total DARPP-32 antibody. […] Chemiluminescence was detected by autoradiography and bands were quantified by analysis of scanned images using NIH IMAGE 1.52 software. Data were statistically analyzed by Student's t test in Microsoft EXCEL™ software as indicated.
Neostriatal slices were prepared from male C57/BL6 mice (6–8 weeks old) as disclosed (22). Slices were treated with drugs as specified in the text and figure legends. After drug treatment, slices were immediately frozen in liquid nitrogen, and stored at −80° C. until assayed.
Frozen slices were sonicated in hot homogenization buffer containing 1% SDS and 50 mM NaF, and samples were boiled for 10 min. SDS-PAGE sample buffer was then added and samples were boiled for 5 min. Samples (approximately 120 μg protein) were separated by SDS-PAGE (10% polyacrylamide) and transferred to nitrocellulose. Immunoblots were first probed with antiphospho-Ser-137 DARPP-32 antibody. The blots were stripped and probed with anti-phosphoThr-75 DARPP-32 antibody. Blots were stripped again and probed with anti-total DARPP-32 antibody. Antibody binding was detected by enhanced chemiluminescence (ECL) using X-ray film, and images were analyzed by laser scanning densitometry using NIH Image 1.52 software. Data were statistically analyzed by Student's t-test using Microsoft EXCEL™ software as indicated.

[2] = tested on: HA-tagged CK1ε; experiment: kinase activity of HA-CK1ε immunoprecipitated from transfected N2a cells, DARPP-32 as substrate; assay type: cell-based
Procedure: Neuroblastoma N2a cells were cultured in DMEM containing 5% fetal bovine serum (FBS) to 50–60% confluency. Four micrograms of the expression plasmid for HA-CK1ε were transfected into N2a cells in 100 mm dishes using FuGENE™ 6. Twenty-four hours after transfection, cells were incubated in phosphate-buffered Krebs-Henseleit solution (Sigma) for 10 minutes at room temperature. Cells were then incubated with or without CKI inhibitor for 30 minutes before treating with the group I mGluR agonist (S)-3,5-DHPG (100 μM) for 2 minutes. Cells were then lysed in one ml of lysis buffer containing 1% Nonidet P-40 (NP-40), 150 mM NaCl, 0.1% SDS, 50 mM Tris (pH 8.0), 5 mM Na3VO4, 20 mM NaF, 20 mM β-glycerol-phosphate and protease inhibitors. Lysates were centrifuged at 10,000 g and supernatants were used for immunoprecipitation and kinase assay.
For immunoprecipitation of CKI from N2a cells, lysates (1 mg of total protein) were pre-cleared with 5 μl of mouse IgG and 50 μl of protein A agarose for 30 minutes. Five μl of anti-HA antibody were added and samples were incubated for 1 hour at 4° C. Five μl of anti-mouse rabbit IgG and 50 μl of protein A agarose were then added for 45 minutes. Immuno-complexes were washed three times in lysis buffer, two times in kinase buffer (30 mM Hepes (pH 7.5), 7 mM MgCl2, 0.5 mM DTT). CKI assays were performed in a 30 μl assay volume with 2 μg of purified DARPP-32, 500 μM ATP and 5 μCi γ-^32P-ATP. Samples were incubated at 30° C. for 20 minutes, reactions were stopped by addition of SDS-sample buffer, and samples were boiled for 5 minutes. Samples were separated by SDS-PAGE (12% polyacrylamide). SDS-PAGE gels were dried and exposed to Kodak film for autoradiography. Bands were quantified by analysis using a Molecular Dynamics PhosphorImager.
Neuroblastoma N2a cells were cultured to 50–60% confluence in DMEM containing 5% fetal bovine serum. Four μg of the expression plasmid for HA-CK1ε or myc-MM2-CK1ε was transfected into N2a cells in 100 mm dishes using FuGENE6™. Twenty-four hours after transfection, cells were incubated at room temperature in phosphate-buffered Kreb's-Henseleit solution (Sigma) for 10 min and then with or without inhibitors for 30 min before treating with (S)-3,5-DHPG, for 2 min. Cells were then lysed in 1 ml of radio-immunoprecipitation (RIPA) buffer containing 1% NP-40, 150 mM NaCl, 0.1% SDS, 50 mM Tris, pH 8.0, 5 mM Na3VO4, 20 mM NaF, 20 mM β-glycerol-phosphate and protease inhibitors. Lysates were centrifuged at 10,000 g, and supernatants were used for immunoprecipitation and kinase assay.
For immunoprecipitation of CK1ε from N2a cells, lysates (1 mg of total protein) were precleared with 5 μl of mouse IgG (ICN) and 50 μl of protein A agarose for 30 min. Five μl (approximately 2 μg) of anti-HA or anti-myc antibody was added and samples were incubated for 1 h at 4° C. Five μl of anti-mouse rabbit IgG and 50 μl of protein A agarose were then added for 45 min. Immuno-complexes were washed 3 times in lysis buffer and 2 times in kinase buffer (30 mM Hepes, pH 7.5, 7 mM MgCl2, 0.5 mM DTT).
CK1 assays were performed in a 30 μl assay volume with 2 μg of purified DARPP-32, 500 μM ATP and 5 μCi γ-^32P-ATP. Reactions were started by addition of the ATP. Samples were incubated at 30° C. for 10 min and reactions were stopped by addition of SDS-sample buffer and boiled for 5 min. Samples were separated by SDS-PAGE (12% polyacrylamide). SDS-PAGE gels were dried and exposed to Kodak film for autoradiography. Results were quantified using a Molecular Dynamics PHOSPHORIMAGER™. Immunoprecipitation and assay of Cdk5 were performed as disclosed (20).

| SMILES | effect on basal or DHPG-stimulated DARPP-32 phosphorylation at Thr75 ([1]; 50 μM CKI-7, 30 min before DHPG 2 min) | effect on basal and DHPG-stimulated DARPP-32 phosphorylation at Thr75 ([1]; CKI-7 100 to 300 μM, 30 min before DHPG 2 min) | effect of pre-incubation on the ability of DHPG to increase CK1ε activity ([2]; 30 min before DHPG 100 μM 2 min, CKI-7 100 μM, L-AP3 100 μM, U73122 10 μM, BAPTA/AM 20 μM, cyclosporin A 1 μM) | increase in phosphorylation of Thr75 ([1]; DHPG 100 μM, group I mGluR activation) | effect on phosphorylation of Thr75 in DARPP-32 ([1]; slices treated with drug alone: DHPG 100 μM, ionomycin 2 μM) | effect on CK1ε activity ([2]; DHPG 100 μM for 2 min) | increase in CKI activity compared to the basal level ([2]; DHPG 100 μM for 2 minutes) |
| --- | --- | --- | --- | --- | --- | --- | --- |
| NCCNS(=O)(=O)c1ccc(Cl)c2ccncc12 [CKI-7] | little effect | dose-dependent decreases | blocked | – | – | – | – |
| N[C@H](C(=O)O)c1cc(O)cc(O)c1 [DHPG, (S)-3,5-Dihydroxyphenylglycine] | – | – | – | 2–3 fold | rapid but transient increase | increase | approximately 2 fold |
